Data: ChEMBL document CHEMBL1201862, “PubChem BioAssay data set” (2004)
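96-well plates; 48 h exposure; 5 concentrations. Endpoints by linear interpolation between flanking doses. Not reached: highest tested concentration assigned. GI50: concentration for 50% inhibition of growth.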 Active and inactive are the calls of the source. Rule as the data show it: active = GI50 up to about 1.1 µM and inactive = higher.

How the values were obtained:
Assay in all cases: growth of human tumour cells (NCI), 48 h
786-0 = test system: 786-0
A498 = test system: A498
A549 = test system: A549
ACHN = test system: ACHN
BT-549 = test system: BT-549
CAKI-1 = test system: CAKI-1
CCRF-CEM = test system: CCRF-CEM
COLO 205 = test system: COLO 205
DU-145 = test system: DU-145
HCC 2998 = test system: HCC 2998
HCT-116 = test system: HCT-116
HCT-15 = test system: HCT-15
HOP-62 = test system: HOP-62
HT-29 = test system: HT-29
Hs-578T = test system: Hs-578T
IGROV-1 = test system: IGROV-1
K562 = test system: K562
KM12 = test system: KM12
LOX IMVI = test system: LOX IMVI
M14 = test system: M14
MDA-MB-231 = test system: MDA-MB-231
MDA-MB-435 = test system: MDA-MB-435
MDA-N = test system: MDA-N
MOLT-4 = test system: MOLT-4
Malme-3M = test system: Malme-3M
NCI-H226 = test system: NCI-H226
NCI-H23 = test system: NCI-H23
NCI-H460 = test system: NCI-H460
NCI-H522 = test system: NCI-H522
NCI/ADR-RES = test system: NCI/ADR-RES
OVCAR-3 = test system: OVCAR-3
OVCAR-4 = test system: OVCAR-4
OVCAR-5 = test system: OVCAR-5
OVCAR-8 = test system: OVCAR-8
PC-3 = test system: PC-3
RPMI-8226 = test system: RPMI-8226
RXF 393 = test system: RXF 393
SF-268 = test system: SF-268
SF-295 = test system: SF-295
SK-MEL-28 = test system: SK-MEL-28
SK-MEL-2 = test system: SK-MEL-2
SK-MEL-5 = test system: SK-MEL-5
SK-OV-3 = test system: SK-OV-3
SN12C = test system: SN12C
SNB-19 = test system: SNB-19
SNB-75 = test system: SNB-75
SW-620 = test system: SW-620
T47D = test system: T47D
TK-10 = test system: TK-10
U-251 = test system: U-251
UACC-257 = test system: UACC-257
UACC-62 = test system: UACC-62
UO-31 = test system: UO-31
EKVX = test system: EKVX
HL-60 = test system: HL-60
HOP-92 = test system: HOP-92
MCF7 = test system: MCF7

For `CSc1nc(Nc2cccc(C(F)(F)F)c2)c2c(N)nn(C)c2n1`, the GI50 (786-0) was > 100 µM (inactive), the GI50 (A498) was 48 µM (inactive) and the GI50 (A549) was 43.6 µM (inactive). For the same compound, the GI50 (ACHN) was > 100 µM (inactive), the GI50 (BT-549) was > 100 µM (inactive) and the GI50 (CAKI-1) was > 100 µM (inactive). For the same compound, the GI50 (CCRF-CEM) was 38.1 µM (inactive), the GI50 (COLO 205) was > 100 µM (inactive) and the GI50 (DU-145) was > 100 µM (inactive). The GI50 (HCC 2998) was 89.7 µM (inactive), the GI50 (HCT-116) was > 100 µM (inactive) and the GI50 (HCT-15) was greater than 100 µM. For the same compound, the GI50 (HOP-62) was > 100 µM (inactive), the GI50 (HT-29) was 51.9 µM (inactive) and the GI50 (Hs-578T) was > 100 µM (inactive). The GI50 (IGROV-1) was > 100 µM (inactive), the GI50 (K562) was 84.9 µM (inactive) and the GI50 (KM12) was > 100 µM (inactive). The GI50 (LOX IMVI) was 71.1 µM (inactive), the GI50 (M14) was 76 µM (inactive) and the GI50 (MDA-MB-231) was > 100 µM (inactive). The GI50 (MDA-MB-435) was > 100 µM (inactive), the GI50 (MDA-N) was > 100 µM (inactive) and the GI50 (MOLT-4) was 49 µM (inactive). For the same compound, the GI50 (Malme-3M) was 59.4 µM (inactive), the GI50 (NCI-H226) was > 100 µM (inactive) and the GI50 (NCI-H23) was > 100 µM (inactive). The GI50 (NCI-H460) was 50.9 µM (inactive), the GI50 (NCI-H522) was 34 µM (inactive) and the GI50 (NCI/ADR-RES) was 85.3 µM (inactive). For the same compound, the GI50 (OVCAR-3) was > 100 µM (inactive), the GI50 (OVCAR-4) was > 100 µM (inactive) and the GI50 (OVCAR-5) was > 100 µM (inactive). For the same compound, the GI50 (OVCAR-8) was > 100 µM (inactive), the GI50 (PC-3) was > 100 µM (inactive) and the GI50 (RPMI-8226) was > 100 µM (inactive). The GI50 (RXF 393) was 20.5 µM (inactive), the GI50 (SF-268) was > 100 µM (inactive) and the GI50 (SF-295) was 38 µM (inactive). The GI50 (SK-MEL-28) was > 100 µM (inactive), the GI50 (SK-MEL-2) was > 100 µM (inactive) and the GI50 (SK-MEL-5) was > 100 µM (inactive). The GI50 (SK-OV-3) was > 100 µM (inactive), the GI50 (SN12C) was > 100 µM (inactive) and the GI50 (SNB-19) was > 100 µM (inactive). The GI50 (SNB-75) was 81.3 µM (inactive), the GI50 (SW-620) was > 100 µM (inactive) and the GI50 (T47D) was 71.8 µM (inactive). The GI50 (TK-10) was > 100 µM (inactive), the GI50 (U-251) was > 100 µM (inactive) and the GI50 (UACC-257) was > 100 µM (inactive). For the same compound, the GI50 (UACC-62) was > 100 µM (inactive) and the GI50 (UO-31) was > 100 µM (inactive).

With `COc1ccc(/C=N/NS(=O)(=O)c2ccc(/C=C3\NC(=O)NC3=O)cc2)cc1` the GI50 (786-0) was 47.1 µM (inactive), the GI50 (A498) was > 100 µM (inactive) and the GI50 (A549) was > 100 µM (inactive). The GI50 (ACHN) was > 100 µM (inactive), the GI50 (BT-549) was > 100 µM (inactive) and the GI50 (CAKI-1) was > 100 µM (inactive). For the same compound, the GI50 (CCRF-CEM) was > 100 µM (inactive), the GI50 (COLO 205) was > 100 µM (inactive) and the GI50 (DU-145) was > 100 µM (inactive). For the same compound, the GI50 (EKVX) was > 100 µM (inactive), the GI50 (HCC 2998) was > 100 µM (inactive) and the GI50 (HCT-116) was > 100 µM (inactive). For the same compound, the GI50 (HCT-15) was greater than 100 µM, the GI50 (HL-60) was 98.6 µM (inactive) and the GI50 (HOP-62) was > 100 µM (inactive). For the same compound, the GI50 (HOP-92) was > 100 µM (inactive), the GI50 (HT-29) was > 100 µM (inactive) and the GI50 (Hs-578T) was 28.1 µM (inactive). For the same compound, the GI50 (IGROV-1) was 87.5 µM (inactive), the GI50 (K562) was > 100 µM (inactive) and the GI50 (KM12) was > 100 µM (inactive). The GI50 (LOX IMVI) was > 100 µM (inactive), the GI50 (M14) was > 100 µM (inactive) and the GI50 (MCF7) was > 100 µM (inactive). For the same compound, the GI50 (MDA-MB-231) was 11.2 µM (inactive), the GI50 (MDA-MB-435) was > 100 µM (inactive) and the GI50 (MDA-N) was > 100 µM (inactive). The GI50 (MOLT-4) was > 100 µM (inactive), the GI50 (Malme-3M) was > 100 µM (inactive) and the GI50 (NCI-H226) was > 100 µM (inactive). For the same compound, the GI50 (NCI-H23) was > 100 µM (inactive), the GI50 (NCI-H460) was > 100 µM (inactive) and the GI50 (NCI/ADR-RES) was > 100 µM (inactive). For the same compound, the GI50 (OVCAR-3) was > 100 µM (inactive), the GI50 (OVCAR-4) was > 100 µM (inactive) and the GI50 (OVCAR-5) was > 100 µM (inactive). For the same compound, the GI50 (OVCAR-8) was 51.5 µM (inactive), the GI50 (PC-3) was > 100 µM (inactive) and the GI50 (RPMI-8226) was > 100 µM (inactive). The GI50 (RXF 393) was > 100 µM (inactive), the GI50 (SF-268) was 28.1 µM (inactive) and the GI50 (SF-295) was 89.5 µM (inactive). The GI50 (SK-MEL-28) was > 100 µM (inactive), the GI50 (SK-MEL-2) was > 100 µM (inactive) and the GI50 (SK-MEL-5) was > 100 µM (inactive). For the same compound, the GI50 (SK-OV-3) was 73.5 µM (inactive), the GI50 (SN12C) was > 100 µM (inactive) and the GI50 (SNB-19) was 90.8 µM (inactive). The GI50 (SNB-75) was 23.9 µM (inactive), the GI50 (SW-620) was > 100 µM (inactive) and the GI50 (T47D) was > 100 µM (inactive). For the same compound, the GI50 (TK-10) was > 100 µM (inactive), the GI50 (U-251) was 45.2 µM (inactive) and the GI50 (UACC-257) was > 100 µM (inactive). For the same compound, the GI50 (UACC-62) was > 100 µM (inactive) and the GI50 (UO-31) was > 100 µM (inactive).
